Source: patent US11174251B2, “Compositions and methods for inhibition of the JAK pathway” (Rigel Pharmaceuticals, Inc., priority 2010, dated 2021)
Structures can show the parent of a compound that is named as a salt.

Biological target: T1, JAK3 (Homo sapiens, UniProt P52333)
T1 construct: The Ramos B-cell line was acquired from ATCC (ATCC Catalog No. CRL-1596); host or cells: Ramos B-cell line (human)
T1 sequence (P52333 1-1124): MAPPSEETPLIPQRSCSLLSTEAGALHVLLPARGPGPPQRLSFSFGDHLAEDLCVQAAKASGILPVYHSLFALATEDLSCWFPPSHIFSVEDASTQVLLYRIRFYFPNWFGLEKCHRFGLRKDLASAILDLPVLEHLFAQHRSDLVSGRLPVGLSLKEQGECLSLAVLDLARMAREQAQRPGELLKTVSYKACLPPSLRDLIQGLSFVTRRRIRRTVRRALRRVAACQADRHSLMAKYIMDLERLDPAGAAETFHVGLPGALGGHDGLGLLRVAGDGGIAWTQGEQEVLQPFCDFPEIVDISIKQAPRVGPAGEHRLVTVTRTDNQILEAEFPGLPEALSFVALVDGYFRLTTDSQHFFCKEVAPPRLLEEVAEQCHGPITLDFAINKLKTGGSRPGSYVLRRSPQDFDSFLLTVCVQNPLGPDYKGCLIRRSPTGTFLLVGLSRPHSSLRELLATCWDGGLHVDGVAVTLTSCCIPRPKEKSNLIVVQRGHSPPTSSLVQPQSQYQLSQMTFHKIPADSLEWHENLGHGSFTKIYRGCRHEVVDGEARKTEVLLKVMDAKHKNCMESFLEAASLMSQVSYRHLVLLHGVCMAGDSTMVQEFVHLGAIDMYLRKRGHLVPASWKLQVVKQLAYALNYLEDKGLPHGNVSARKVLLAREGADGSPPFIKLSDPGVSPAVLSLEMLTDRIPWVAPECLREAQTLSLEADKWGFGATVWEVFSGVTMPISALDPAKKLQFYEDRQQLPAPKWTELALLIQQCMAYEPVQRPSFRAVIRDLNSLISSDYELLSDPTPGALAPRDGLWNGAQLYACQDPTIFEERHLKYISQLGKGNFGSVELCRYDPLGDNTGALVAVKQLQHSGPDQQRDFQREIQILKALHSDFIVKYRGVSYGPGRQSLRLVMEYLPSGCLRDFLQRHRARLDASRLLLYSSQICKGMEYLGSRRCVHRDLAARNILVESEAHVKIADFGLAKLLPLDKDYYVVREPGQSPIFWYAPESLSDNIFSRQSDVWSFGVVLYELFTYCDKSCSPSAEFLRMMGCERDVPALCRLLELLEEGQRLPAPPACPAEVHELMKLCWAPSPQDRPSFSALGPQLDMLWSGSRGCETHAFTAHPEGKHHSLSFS
Experiment: Assay for CD23 expression on Ramos B-cells stimulated by IL-4 (Table IV: ability to inhibit JAK3 activity)
Format: cell-based
Conditions: tested under conditions described in Example 3 (so in the source)
Procedure, shortened: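 IL-4-induced CD23 surface expression on human Ramos B cells, detected by flow cytometry after 20–24 h stimulation (IL-4 final 50 units/mL). Compound or DMSO added 1 h beforehand at 37 °C; cells kept in RPMI with 5% serum.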

| IC50 [nM] | SMILES |
| --- | --- |
| < 500 | NC(=O)c1ccc(Nc2ncc(Cl)c(Nc3ccc4oc(=O)[nH]c4c3)n2)cc1 [Compound I-11, 4-(5-chloro-4-(2-oxo-2,3-dihydrobenzo[d]oxazol-5-ylamino)pyrimidin-2-ylamino)benzamide trifluoroacetate salt] |
| < 500 | COc1ccc(Nc2ncc(Cl)c(Nc3ccc4oc(=O)[nH]c4c3)n2)c(F)c1OC [Compound I-51, 5-(5-chloro-2-(2-fluoro-3,4-dimethoxyphenylamino)pyrimidin-4-ylamino)benzo[d]oxazol-2(3H)-one trifluoroacetate salt] |
| < 500 | N#Cc1cccc(Nc2ncc(Cl)c(Nc3ccc4oc(=O)[nH]c4c3)n2)c1F [Compound I-73, 3-(5-chloro-4-(2-oxo-2,3-dihydrobenzo[d]oxazol-5-ylamino)pyrimidin-2-ylamino)-2-fluorobenzonitrile trifluoroacetate salt] |
| > 10000 | Cc1cc(Nc2ncc(Cl)c(Nc3ccc4oc(=O)[nH]c4c3)n2)cc(C)c1C [Compound I-6, 5-(5-chloro-2-(3,4,5-trimethylphenylamino)pyrimidin-4-ylamino)benzo[d]oxazol-2(3H)-one trifluoroacetate salt] |

The next lines start with the compound.

| SMILES | IC50 [nM] |
| --- | --- |
| COc1ccc(Nc2ncc(F)c(Nc3ccc4oc(=O)[nH]c4c3)n2)cc1OCC(=O)NC1CC1 [Compound I-213, N2-[3-(cyclopropylaminocarbonylmethoxy)-4-methoxy]phenyl-5-fluoro-N4-(2-oxo-2,3-dihydro-1,3-benzoxazol-5-yl)-2,4-pyrimidinediamine] | < 500 |
| [2H]C([2H])([2H])c1c(C)cc(Nc2nccc(Nc3ccc4oc(=O)[nH]c4c3)n2)cc1C [Compound I-38, 5-(2-(3,5-dimethyl-4-d3-methyl)phenylamino)pyrimidin-4-ylamino)benzo[d]oxazol-2(3H)-one trifluoroacetate salt] | < 500 |
| O=c1[nH]c2cc(Nc3nc(Nc4ccc5c(c4)CCC(N4CCCC4)CC5)ncc3F)ccc2o1 (stereo not shown) [II-2, 5-(5-fluoro-2-(7-(pyrrolidin-1-yl)-6,7,8,9-tetrahydro-5H-benzo[7]annulen-2-ylamino)pyrimidin-4-ylamino)benzo[d]oxazol-2(3H)-one diformate salt] | < 500 |
| COC(=O)c1cnc(Nc2ccc3ccccc3c2)nc1Nc1ccc2oc(=O)[nH]c2c1 [II-7, 2-(Naphthalen-2-ylamino)-4-(2-oxo-2,3-dihydro-benzooxazol-5-ylamino)-pyrimidine-5-carboxylic acid methyl ester trifluoroacetate salt] | > 10000 |
| Cc1cc(Nc2ncc(F)c(Nc3cc(F)c4oc(=O)[nH]c4c3)n2)cc(C)c1F [Compound I-189, 5-(2-(4-fluoro-3,5-dimethylphenylamino)-5-fluoropyrimidin-4-ylamino)-7-fluorobenzo[d]oxazol-2(3H)-one trifluoroacetate salt] | < 500 |
| Cc1cc(Nc2ncc(CN3CCCCC3)c(Nc3ccc4oc(=O)[nH]c4c3)n2)cc(C)c1C [Compound I-99, 5-(2-(3,4,5-trimethylphenylamino)-5-((piperidin-1-yl)methyl)pyrimidin-4-ylamino)benzo[d]oxazol-2(3H)-one] | > 10000 |
| COc1ccc(Nc2ncc(C)c(Nc3ccc4oc(=O)[nH]c4c3)n2)c(F)c1OC [Compound I-50, 5-[2-(2-Fluoro-3,4-dimethoxy-phenylamino)-5-methyl-pyrimidin-4-ylamino]-3H-benzooxazol-2-one] | < 500 |
| COC(=O)c1cnc(Nc2cc(OC)cc(C(F)(F)F)c2)nc1Nc1ccc2oc(=O)[nH]c2c1 [Compound I-55, 2-(3-Methoxy-5-trifluoromethyl-phenylamino)-4-(2-oxo-2,3-dihydro-benzooxazol-5-ylamino)-pyrimidine-5-carboxylic acid methyl ester trifluoroacetate salt] | > 10000 |
| COC(=O)c1c(C)cc(Nc2ncc(C)c(Nc3ccc4oc(=O)[nH]c4c3)n2)cc1C [Compound I-138, N2-(3,5-dimethyl-4-methoxycarbonyl)phenyl-5-methyl-N4-(2-oxo-2,3-dihydro-1,3-benzoxazol-5-yl)-2,4-pyrimidinediamine] | < 500 |
